From US11912701B2, “Protein kinase inhibitors for promoting liver regeneration or reducing or preventing hepatocyte death” (HEPAREGENIX GMBH, priority 2018, dated 2024)

Experiments:
JNK1 [1] = molecular target: T1, JNK1 (Homo sapiens, UniProt P45983); test: KINOMEscan competition binding assay, JNK1; design: M1/Q384; host or cells: HEK-293; conditions: ratio PoC (off-target)/PoC (MKK4)
In short: (§1)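 DNA-tagged kinases expressed in HEK-293 cells compete between immobilized ligand on blocked beads and test compound at 100 nM; kinase retained on beads quantified by qPCR of the tag.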
Target sequence in this assay (P45983 1-384 isoform P45983-2): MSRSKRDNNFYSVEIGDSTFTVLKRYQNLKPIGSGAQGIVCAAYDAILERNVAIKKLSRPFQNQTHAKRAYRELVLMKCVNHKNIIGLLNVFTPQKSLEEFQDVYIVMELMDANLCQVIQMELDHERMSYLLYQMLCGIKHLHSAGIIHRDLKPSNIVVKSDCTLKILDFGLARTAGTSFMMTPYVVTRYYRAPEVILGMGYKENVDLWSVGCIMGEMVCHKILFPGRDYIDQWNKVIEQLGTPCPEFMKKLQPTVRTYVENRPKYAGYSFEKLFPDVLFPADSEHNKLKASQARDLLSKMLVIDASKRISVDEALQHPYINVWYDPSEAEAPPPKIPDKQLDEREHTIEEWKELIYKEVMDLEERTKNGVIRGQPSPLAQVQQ

MKK4 [2] = molecular target: T2, MKK4 (Homo sapiens, UniProt P45985); test: 33PanQinase enzyme assay, MKK4; format: biochemical; conditions: assay 'IC50'; read-out: Potency MKK4 (IC50)
T2 construct: purchased ProQinase GmbH, Freiburg, Germany (33PanQinase Assay Service)
T2 sequence (P45985 1-399): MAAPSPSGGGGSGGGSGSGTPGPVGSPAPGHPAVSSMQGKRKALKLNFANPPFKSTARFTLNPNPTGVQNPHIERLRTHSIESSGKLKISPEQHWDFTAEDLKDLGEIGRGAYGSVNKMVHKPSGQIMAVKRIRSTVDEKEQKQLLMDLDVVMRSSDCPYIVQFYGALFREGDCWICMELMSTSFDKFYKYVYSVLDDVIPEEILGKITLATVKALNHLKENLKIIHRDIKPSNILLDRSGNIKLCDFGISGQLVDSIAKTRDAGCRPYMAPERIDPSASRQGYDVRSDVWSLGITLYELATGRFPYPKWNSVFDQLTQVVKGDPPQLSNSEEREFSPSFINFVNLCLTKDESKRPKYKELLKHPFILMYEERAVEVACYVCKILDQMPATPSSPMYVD
In short: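 Inhibition measured as 33Pi transfer to substrate after a 60-min, 30 °C reaction, acid-stopped and scintillation-counted.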

MKK7 [3] = molecular target: T3, MKK7 (Homo sapiens, UniProt O14733); test: 33PanQinase enzyme assay, MKK7; format: biochemical; design: purchased ProQinase GmbH, Freiburg, Germany (33PanQinase Assay Service); conditions: ratio IC50(MKK7)/IC50(MKK4)
T3 sequence (O14733 1-419): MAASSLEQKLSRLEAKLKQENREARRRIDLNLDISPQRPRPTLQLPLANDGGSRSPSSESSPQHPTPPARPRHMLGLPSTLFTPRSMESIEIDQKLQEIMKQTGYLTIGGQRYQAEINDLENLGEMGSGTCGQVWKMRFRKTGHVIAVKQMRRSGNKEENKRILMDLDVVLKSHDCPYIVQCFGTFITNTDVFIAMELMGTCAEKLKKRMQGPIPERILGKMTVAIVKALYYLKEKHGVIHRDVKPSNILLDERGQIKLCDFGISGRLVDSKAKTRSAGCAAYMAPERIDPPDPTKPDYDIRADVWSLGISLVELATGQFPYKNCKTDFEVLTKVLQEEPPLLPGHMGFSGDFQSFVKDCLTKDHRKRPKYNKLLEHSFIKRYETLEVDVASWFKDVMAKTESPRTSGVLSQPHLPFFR
In short: (§2)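 33Pi incorporation, read by microplate scintillation counting, measured kinase activity after 60 min at 30 °C. Reactions were quenched with 2% (v/v) H3PO4 and washed with 0.9% NaCl. IC50 derived by least-squares fitting; single doses reported as % residual activity.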

BRaf [4] = molecular target: T4, BRaf (Homo sapiens, UniProt P15056); test: 33PanQinase enzyme assay, BRaf; format: biochemical; conditions: ratio IC50(BRaf)/IC50(MKK4)
T4 construct: purchased ProQinase GmbH, Freiburg, Germany (33PanQinase Assay Service)
T4 sequence (P15056 whole entry, species assumed): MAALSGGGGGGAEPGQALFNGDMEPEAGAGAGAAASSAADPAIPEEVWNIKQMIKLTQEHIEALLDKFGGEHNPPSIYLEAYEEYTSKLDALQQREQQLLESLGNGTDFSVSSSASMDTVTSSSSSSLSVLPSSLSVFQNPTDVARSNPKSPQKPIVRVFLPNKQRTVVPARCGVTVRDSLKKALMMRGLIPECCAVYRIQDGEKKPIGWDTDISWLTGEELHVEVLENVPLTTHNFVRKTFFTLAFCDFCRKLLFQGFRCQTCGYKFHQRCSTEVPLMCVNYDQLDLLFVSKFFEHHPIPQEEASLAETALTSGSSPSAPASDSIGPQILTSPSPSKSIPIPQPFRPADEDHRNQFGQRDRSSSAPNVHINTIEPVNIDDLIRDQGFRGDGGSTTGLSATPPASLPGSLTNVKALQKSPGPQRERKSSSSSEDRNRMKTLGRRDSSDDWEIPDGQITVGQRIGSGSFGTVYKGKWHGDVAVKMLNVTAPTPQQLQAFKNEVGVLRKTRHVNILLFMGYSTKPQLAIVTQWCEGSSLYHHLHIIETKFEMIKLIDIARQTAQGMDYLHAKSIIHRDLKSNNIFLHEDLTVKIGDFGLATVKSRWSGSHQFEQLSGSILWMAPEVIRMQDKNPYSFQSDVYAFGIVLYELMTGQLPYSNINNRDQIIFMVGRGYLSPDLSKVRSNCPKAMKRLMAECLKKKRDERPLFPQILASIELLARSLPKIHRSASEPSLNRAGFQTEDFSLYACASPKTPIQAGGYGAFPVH
In short: as §2

MKK7 [5] = molecular target: T3, MKK7; test: KINOMEscan competition binding assay, MKK7; design: M1/R419; host or cells: HEK-293; conditions: ratio PoC (off-target)/PoC (MKK4)
In short: as §1

JNK1 [6] = molecular target: T1, JNK1; test: 33PanQinase enzyme assay, JNK1; format: biochemical; design: purchased ProQinase GmbH, Freiburg, Germany (33PanQinase Assay Service); conditions: ratio IC50(JNK1)/IC50(MKK4)
In short: as §2
Target sequence in this assay (P45983 whole entry): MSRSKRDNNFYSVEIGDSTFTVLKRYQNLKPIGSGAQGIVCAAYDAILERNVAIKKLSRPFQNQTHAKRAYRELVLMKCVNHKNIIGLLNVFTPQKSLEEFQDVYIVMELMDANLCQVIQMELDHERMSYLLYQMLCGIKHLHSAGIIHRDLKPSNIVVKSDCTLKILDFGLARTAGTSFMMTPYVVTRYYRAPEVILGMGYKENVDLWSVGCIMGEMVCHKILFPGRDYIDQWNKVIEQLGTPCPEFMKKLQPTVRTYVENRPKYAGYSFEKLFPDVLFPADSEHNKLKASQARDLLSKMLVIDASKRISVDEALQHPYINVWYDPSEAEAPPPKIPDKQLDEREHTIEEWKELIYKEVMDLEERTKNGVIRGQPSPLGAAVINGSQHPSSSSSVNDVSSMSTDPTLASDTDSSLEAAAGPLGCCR

BRaf [7] = molecular target: T4, BRaf; test: KINOMEscan competition binding assay, BRaf; conditions: ratio PoC (off-target)/PoC (MKK4)
In short: as §1

MKK4 [8] = molecular target: T5, MKK4 (Homo sapiens, UniProt P45985); test: KINOMEscan competition binding assay, MKK4; conditions: residual percent of control binding (PoC) at 100 nM
T5 construct: S84/D399; host or cells: HEK-293
T5 sequence (P45985 84-399): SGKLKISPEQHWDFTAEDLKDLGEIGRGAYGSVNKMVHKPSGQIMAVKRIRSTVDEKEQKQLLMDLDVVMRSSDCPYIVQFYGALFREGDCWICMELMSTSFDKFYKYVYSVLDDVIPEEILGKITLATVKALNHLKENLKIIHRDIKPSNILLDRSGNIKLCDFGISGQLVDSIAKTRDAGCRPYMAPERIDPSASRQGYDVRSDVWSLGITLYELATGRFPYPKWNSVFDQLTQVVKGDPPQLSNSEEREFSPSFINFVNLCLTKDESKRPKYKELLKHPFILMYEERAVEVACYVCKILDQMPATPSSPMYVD
In short: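 Tested at 100 nM and reported as percent of control binding (PoC). MKK4 was produced in HEK-293 cells and DNA-tagged. Displacement from ligand-coated, blocked beads was read by qPCR of eluted kinase.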

SMILES	selectivity based on % Ctrl @100 nM vs. JNK1 (JNK1 [1])	IC50 (MKK4 [2]) [µM]	Selectivity IVIKK7, IC50(off-target)/IC50(MKK4) (MKK7 [3])	Selectivity Braf, IC50(off-target)/IC50(MKK4) (BRaf [4])	selectivity based on % Ctrl @100 nM vs. MKK7 (MKK7 [5])	Selectivity JNK1, IC50(off-target)/IC50(MKK4) (JNK1 [6])	selectivity based on % Ctrl @100 nM vs. Braf (BRaf [7])	MKK4 [% Ctrl @ 100 nM (MKK4 [8])
CCCS(=O)(=O)Nc1ccc(F)c(C(=O)c2c[nH]c3ncc(-c4cccnn4)cc23)c1F [Example 48]	++ (100 ≥ ratio > 10)	1 to 10	++ (100 ≥ IC50(off-target)/IC50(MKK4) > 10)	◯ (3 ≥ IC50(off-target)/IC50(MKK4))	++ (100 ≥ ratio > 10)	◯ (3 ≥ IC50(off-target)/IC50(MKK4))	◯ (3 ≥ Ratio)	+ (3 ≤ PoC < 30)
CNc1ncc(-c2cnc3[nH]cc(C(=O)c4ccc(F)c(NS(=O)(=O)CCC(F)(F)F)c4F)c3c2)cn1 [Example 177, N-(2,6-difluoro-3-(5-(2-(methylamino)pyrimidin-5-yl)-1H-pyrrolo[2,3-b]pyridine-3-carbonyl)phenyl)-3,3,3-trifluoropropane-1-sulfonamide]	+++ (Ratio > 100)	< 0.1	+++ (IC50(off-target)/IC50(MKK4) > 100)	–	+++ (Ratio > 100)	+++ (IC50(off-target)/IC50(MKK4) > 100)	+++ (Ratio > 100)	+++ (PoC < 1)
CN(C)c1ncc(-c2cnc3[nH]cc(C(=O)c4ccc(F)c(NS(=O)(=O)CCC(F)(F)F)c4F)c3c2)cn1 [Example 178, N-(3-(5-(2-(dimethylamino)pyrimidin-5-yl)-1H-pyrrolo[2,3-b]pyridine-3-carbonyl)-2,6-difluorophenyl)-3,3,3-trifluoropropane-1-sulfonamide]	+++ (Ratio > 100)	< 0.1	+++ (IC50(off-target)/IC50(MKK4) > 100)	–	+++ (Ratio > 100)	+++ (IC50(off-target)/IC50(MKK4) > 100)	+++ (Ratio > 100)	+++ (PoC < 1)
CS(=O)(=O)Nc1c(F)ccc(C(=O)c2c[nH]c3ncc(-c4cccnc4)cc23)c1F [Example 228, N-(2,6-difluoro-3-(5-(pyridin-3-yl)-1H-pyrrolo[2,3-b]pyridine-3-carbonyl)phenyl)methanesulfonamide]	+++ (Ratio > 100)	0.1 to 1	++ (100 ≥ IC50(off-target)/IC50(MKK4) > 10)	–	+++ (Ratio > 100)	++ (100 ≥ IC50(off-target)/IC50(MKK4) > 10)	+++ (Ratio > 100)	+++ (PoC < 1)
CS(=O)(=O)Nc1c(F)ccc(C(=O)c2c[nH]c3ncc(-c4ccncc4)cc23)c1F [Example 234, N-(2,6-difluoro-3-(5-(pyridin-4-yl)-1H-pyrrolo[2,3-b]pyridine-3-carbonyl)phenyl)methanesulfonamide]	+++ (Ratio > 100)	< 0.1	+++ (IC50(off-target)/IC50(MKK4) > 100)	–	+++ (Ratio > 100)	+++ (IC50(off-target)/IC50(MKK4) > 100)	+++ (Ratio > 100)	+++ (PoC < 1)
CCCS(=O)(=O)Nc1ccc(F)c(C(=O)c2c[nH]c3ncc(C4CCNCC4)cc23)c1F [Example 241, N-(2,4-difluoro-3-(5-(piperidin-4-yl)-1-pyrrolo[2,3-b]pyridine-3-carbonyl)phenyl)propane-1-sulfonamide]	+ (10 ≥ ratio > 3)	1 to 10	+ (10 ≥ IC50(off-target)/IC50(MKK4) > 3)	–	+ (10 ≥ ratio > 3)	◯ (3 ≥ IC50(off-target)/IC50(MKK4))	◯ (3 ≥ Ratio)	+ (3 ≤ PoC < 30)
CCCS(=O)(=O)Nc1ccc(F)c(C(=O)c2c[nH]c3ncc(C4=CCNCC4)cc23)c1F [Example 242]	+ (10 ≥ ratio > 3)	> 10	++ (100 ≥ IC50(off-target)/IC50(MKK4) > 10)	–	+ (10 ≥ ratio > 3)	◯ (3 ≥ IC50(off-target)/IC50(MKK4))	◯ (3 ≥ Ratio)	+ (3 ≤ PoC < 30)

The remaining lines, values ahead:

selectivity based on % Ctrl @100 nM vs. JNK1 (JNK1 [1])	IC50 (MKK4 [2]) [µM]	Selectivity IVIKK7, IC50(off-target)/IC50(MKK4) (MKK7 [3])	Selectivity Braf, IC50(off-target)/IC50(MKK4) (BRaf [4])	selectivity based on % Ctrl @100 nM vs. MKK7 (MKK7 [5])	Selectivity JNK1, IC50(off-target)/IC50(MKK4) (JNK1 [6])	selectivity based on % Ctrl @100 nM vs. Braf (BRaf [7])	MKK4 [% Ctrl @ 100 nM (MKK4 [8])	SMILES
++ (100 ≥ ratio > 10)	> 10	◯ (3 ≥ IC50(off-target)/IC50(MKK4))	–	++ (100 ≥ ratio > 10)	◯ (3 ≥ IC50(off-target)/IC50(MKK4))	◯ (3 ≥ Ratio)	+ (3 ≤ PoC < 30)	CCCS(=O)(=O)Nc1ccc(F)c(C(=O)c2c[nH]c3ncc(-c4cc[nH]c4)cc23)c1F [Example 100, N-(3-(5-(1H-pyrrol-3-yl)-1H-pyrrolo[2,3-b]pyridine-3-carbonyl)-2,4-difluorophenyl)propane-1-sulfonamide]
+++ (Ratio > 100)	0.1 to 1	+++ (IC50(off-target)/IC50(MKK4) > 100)	–	+++ (Ratio > 100)	◯ (3 ≥ IC50(off-target)/IC50(MKK4))	++ (100 ≥ ratio > 10)	+++ (PoC < 1)	CCCS(=O)(=O)Nc1ccc(F)c(C(=O)c2c[nH]c3ncc(C4CCC4)cc23)c1F [Example 123, N-(3-(5-cyclobutyl-1-pyrrolo[2,3-b]pyridine-3-carbonyl)-2,4-difluorophenyl)propane-1-sulfonamide]
